Assay results taken from patent US6555692B1, “Preparation and use of bifunctional molecules having DNA sequence binding specificity” (California Institute of Technology, priority 1996, dated 2003).
pKd: −log10 of the molar value.

What was measured:
[1] = test system: 262 bp restriction fragment (EcoRI/FspI) of pBR322; assay: DNA alkylation / cleavage reactions; format: biochemical
Procedure: Alkylation was examined on a 262 bp restriction fragment (EcoRI/FspI) of pBR322, radiolabeled on the 3′ end (10,000 cpm/reaction). Polyamide or bromodistamycin were added at appropriate concentrations. Final reaction concentrations were 10 mM sodium phosphate (pH 7.0), 100 μM sonicated calf thymus DNA. The reactions were incubated at 37° C. for 0, 1, 5, 10, 20, and 40 hours. Following incubation, the reactions were ethanol precipitated and dissolved in 10 μl 10 mM sodium phosphate buffer and heated at 90° C. for 15 minutes. Piperidine (40 μl, 1.4 M) was added and the reaction heated again for 15 minutes at 90° C. Piperidine was lyophilized off and the reactions were resuspended in 7 μl 1× TBE/80% formamide loading buffer, denatured by heating at 85° C. for 10 minutes and placed on ice. Reactions were electrophoresed on 8% polyacrylamide gels (5% cross link, 7 M urea) in 1× TBE at 2000V. Gels were dried and exposed to a storage phosphor screen (Molecular Dynamics).

5′-AAAAACACA-3′ = assay: Quantitative DNase I footprint titration
[2] = biological target: nine bp polyamide binding site on restriction fragment from pUC-19; assay: Pvu II endonuclease protection assay, association and dissociation rates
From the text: Provided herein is an endonuclease protection assay to measure the rate of polyamide-DNA complex formation. Such an assay may comprise a labeled restriction fragment comprising a polyamide binding site that overlaps a restriction endonuclease cleavage site. Cleavage by the cognate is prevented when the overlapping polyamide binding site is occupied by the polyamide. As a control, a second labeled DNA fragment may be that contains the restriction site, but lacks the overlapping polyamide binding site. The rate of polyamide association with its target binding site may be assessed by incubating the solutions of the polyamide with the labeled target and reference fragments for a sufficient timer period. Using the experimental conditions provided herein, the reference site is nearly completely digested, but protection at the target site is observed and can be correlated with polyamide concentration and the time of equilibration. Similarly, the dissociation rate is analyzed by adding an excess of unlabeled competitor DNA to an equilibrated solution of the labeled DNA fragments and polyamide. Addition of the competitor reduces the concentration of free polyamide to zero. The rate at with polyamide dissociation occurs from the target site on the labeled fragment can be followed by the rate of loss of protection from restriction enzyme digestion as the re-equilibration time is increased.
An engineered, radiolabeled restriction fragment from pUC-19 was prepared in which a nine bp polyamide binding site overlaps by two base pairs with the cleavage site for the restriction endonuclease Pvu II. Cleavage by Pvu II is prevented when the overlapping polyamide binding site is .occupied by the polyamide. As a control, a second radiolabeled DNA fragment was prepared which contains a Pvu II site, but lacks the overlapping polyamide binding site.
The rate of polyamide association with its target binding site was assessed by combining solutions of the polyamide with the radiolabeled target and reference fragments and allowing them to for 5 minutes to 5 hours before initiating a treatment (1-2 minutes) with the enzyme Pvu II. Under the experimental conditions, the reference site is nearly completely digested, but protection at the target site is observed and can be correlated with polyamide concentration and the time of equilibration. Similarly, the dissociation rate is analyzed by adding an excess of unlabeled competitor DNA to an equilibrated solution of the labeled DNA fragments and polyamide. Addition of the competitor reduces the concentration of free polyamide to zero. The rate at with polyamide dissociation occurs from the target site on the labeled fragment can be followed by the rate of loss of protection from Pvu II digestion as the re-equilibration time is increased. The association profile with respect to time for the 9-ring extended hairpin polyamide ImPyPy-γ-ImPyPy-β-PyPyPy-G-Dp binding its cognate 9 base pair match site is shown in FIG. 6.
The extended hairpin dissociation rate has been determined to be kd=3.1±0.2×10^−5 s^−1, this corresponds to a half-time of 6.2 h (10 mM Bis-Tris (pH 7.0), 50 mM NaCl, 5 mM MgCl2, 1 mM mercaptoethanol at 37° C.). Wherein half-time is defined as the time required for 50% of a population of DNA and polyamide to dissociate or associate. The association rate has been determined at ka=1.3±0.8×10^4 M^−1s^−1; this corresponds to a half-time of 3.0 h at 5.0 nM. The determined value for the equilibrium association constant (Keq=6.3±0.8×10^8 M^−1) correlates well with the kinetically determined ratio (ka/kd=4.2±2.6×10^8 M^−1).

5′-TGCGCA-3′ = assay: DNase I footprint titration, pSES9hp fragment; format: binding
From the text: The experimental target plasmid pSES9hp was constructed by hybridization of the inserts:
The plasmid pSES9hp was linearized with EcoRI and PvuII and then treated with Klenow fragment, deoxyadenosine 5′-[α-^32P]triphosphate and thymidine 5′-[α-^32P]triphosphate for 3′ labeling. Alternatively, pSES9hp was linearized with EcoRI, treated with calf alkaline phosphatase, and then 5′ labeled with T4 polynucleotide kinase and deoxyadenosine 5′- [γ-^32P]triphosphate. The 5′ labeled fragment was then digested with PvuII. The labeled fragment (3′ or 5′) was loaded onto a 5% non-denaturing polyacrylamide gel, and the desired 282 base pair band was visualized by autoradiography and isolated. Chemical sequencing reactions were performed according to published methods. (Maxam, A. M. & Gilbert, W. S. (1980). Sequencing End-Labeled DNA with Base-Specific Chemical Cleavages. Methods Enzymol. 65, 499-560; Iverson, B. L. & Dervan, P. B. (1987). Adenine-specific DNA chemical sequencing reaction. […], 7823-7830.)

5′-TGTTA-3′ [3] = assay: Quantitative DNase I footprint titration, equilibrium association constant
5′-TGTTA-3′ [4] = settings: cited from earlier work
5′-[…]-3′ = assay: Quantitative DNase I footprinting, pJT-LTR 245 base pair fragment; format: binding, HIV-1
[5] = test system: 282 bp EcoRI/PvuII restriction fragment from plasmid pSES9hp (5′-TGGCCA-3′, 5′-TGCGCA-3′, 5′-TGGGGA-3′ sites); assay: Affinity cleaving, identification of binding orientation; settings: 25 mM Tris-acetate, 10 mM NaCl, 100 μM/base pair calf thymus DNA, pH 7.0, 22° C.
Procedure: Affinity cleavage assays (25 mM Tris-acetate, 10 mM NaCl, 100 μM/base pair calf thymus DNA, pH 7.0 and 22° C.) were performed in order to identify the binding orientations of the EDTA analogues of the three hairpin polyamides: ImImPyPy-γ-ImImPyPy-β-Dp-EDTA, ImPyImPy-γ-ImPyImPy-β-Dp-EDTA , and ImImImIm-γ-PyPyPyPy-β-Dp-EDTA.
Depicted in FIG. 17 is a representative affinity cleaving experiment on a 3′-^32P-labeled 282 bp EcoRI/PvuII restriction fragment from plasmid pSES9hp. […] Lane 1, A reaction; lane 2, C reaction; lanes 3-5, 1 μM, 2 μM and 5 μM ImImPyPy-γ-ImImPyPy-β-Dp-EDTA (1-E); lanes 6-8, 1 μM, 2 μM and 5 μM ImPyImPy-γ-ImPyImPy-β-Dp-EDTA (2-E); lanes 9-11, 1 μM, 2 μM and 5 μM ImImImIm-γ-PyPyPyPy-β-Dp-EDTA (3-E); lane 12, intact DNA. All lanes contain 15 kcpm 3′-radiolabeled DNA, 25 mM Tris-acetate buffer (pH 7.0), 10 mM NaCl, and 100 μM/base pair calf thymus DNA. (Right) Affinity cleavage patterns for ImImPyPy-γ-ImImPyPy-β-Dp-EDTA and ImPyImPy-γ-ImPyImPy-β-Dp-EDTA at 1 μM concentration, and ImImImIm-γ-PyPyPyPy-β-Dp-EDTA at 5 μM concentration. Illustration of the 282 bp restriction fragment with the position of the sequence indicated. Bar heights are proportional to the […] at each band. Boxes represent equilibrium binding sites determined by the published model, and only sites that were quantitated by DNase I footprint titrations are boxed.

5′-AAAAAGACAAAAA-3′ = assay: Quantitative DNase I footprint titration; format: binding; settings: 13 bp site
From the text: At least two distinct binding modes are expected to form for the ImPyPy-X-PyPyPy-Dp polyamides described above that bind in an extended conformation. These binding modes as “slipped” and “overlapped”. In the overlapped (9 base pair) binding mode, two ImPyPy-X-PyPyPy-Dp polyamides bind directly opposite one another. The “slipped” (13 base pair) binding mode integrates the 2:1 and 1:1 polyamide-DNA binding motifs at a single site. In this binding mode, the ImPyPy moieties of two ImPyPy-X-PyPyPy-Dp polyamides bind the central 5′-AGACA-3′ sequence in a 2:1 manner as in the ImPyPy homodimer, and the PyPyPy moieties of the polyamides bind to A,T flanking sequences as in the 1:1 complexes of distamycin.

5′-TGTTAAACA-3′ = assay: Quantitative DNase I footprint titration; format: binding; settings: 9 bp site
From the text: To identify a flexible linker amino acid, four polyamides of the formula ImPyPy-X-PyPyPy-Dp where X=Py, G (glycine), β, or γ, respectively, were synthesized and their equilibrium association constants determined for 5′-[…]-3′ (9 base pair) sites. (Trauger, et al. J. Am. Chem. Soc., 118, 6160 (1996).)

COc1c(O)c2c(c3cc(C(=O)N4CCc5c4c(O)c(OC)c4[nH]c(C(=O)N6C[C@H]7C[C@@]78C6=CC(=O)c6[nH]cc(C)c68)cc54)[nH]c13)CCN2C(N)=O [(+)CC-1065]
DNA cleavage (alkylation) ([1]; reaction time 1 hour at 37° C.): intense cleavage at 13 adenines

CN(C)CCCNC(=O)CNC(=O)c1cc(NC(=O)c2cc(NC(=O)c3cc(NC(=O)CCNC(=O)c4cc(NC(=O)c5cc(NC(=O)c6nc(NC(=O)CCCNC(=O)c7cc(NC(=O)c8cc(NC(=O)c9nccn9C)cn8C)cn7C)cn6C)cn5C)cn4C)cn3C)cn2C)cn1C [ImPyPy-γ-ImPyPy-β-PyPyPy-G-Dp]
increase in affinity relative to six-ring hairpin ImPyPy-γ-ImPyPy-β-Dp (5′-AAAAACACA-3′): ~400 fold
pKd (5′-AAAAACACA-3′; read-out: concentration at which the target site is bound, 9-bp target site): 10.30
kinetically determined ratio ka/kd [2]: 4.2±2.6×10^8 M^−1
dissociation rate kd ([2]; 10 mM Bis-Tris (pH 7.0), 50 mM NaCl, 5 mM MgCl2, 1 mM mercaptoethanol at 37° C.): 3.1±0.2×10^−5 s^−1
association rate ka ([2]; 37° C.): 1.3±0.8×10^4 M^−1s^−1
dissociation half-time ([2]; 37° C.): 6.2 h
equilibrium association constant Keq ([2]; 37° C.): 6.3±0.8×10^8 M^−1
association half-time ([2]; at 5.0 nM): 3.0 h

CN(C)CCCNC(=O)CCNC(=O)c1cc(NC(=O)c2nc(NC(=O)c3cc(NC(=O)c4nc(NC(=O)CCCNC(=O)c5cc(NC(=O)c6nc(NC(=O)c7cc(NC(=O)c8nccn8C)cn7C)cn6C)cn5C)cn4C)cn3C)cn2C)cn1C [ImPyImPy-γ-ImPyImPy-β-Dp]
Ka (5′-TGCGCA-3′): 4e+07 M⁻¹
specificity (5′-TGCGCA-3′): 4 fold

CN(C)CCCNC(=O)c1cc(NC(=O)c2cc(NC(=O)c3cc(NC(=O)CCCNC(=O)c4cc(NC(=O)c5cc(NC(=O)c6nccn6C)cn5C)cn4C)cn3C)cn2C)cn1C [ImPyPy-γ-PyPyPy-Dp, reference compound]
apparent first order association constant Ka (5′-TGTTA-3′ [3]; 5′-TGTTA-3′ match site): 8e+07 M⁻¹
specificity, match site relative to single base pair mismatch site (5′-TGTTA-3′ [3]; 5′-TGTTA-3′ match vs 5′-TGACA-3′ mismatch): 24 fold
equilibrium association constant Ka (5′-TGTTA-3′ [4]; 5′-TGTTA-3′ target site, prior art): 8e+07 M⁻¹
increase in Ka relative to the unlinked three-ring polyamide pair ImPyPy and PyPyPy (5′-TGTTA-3′ [4]; 5′-TGTTA-3′): 300 fold

CN(C)CCCNC(=O)CCNC(=O)c1cc(NC(=O)c2cc(NC(=O)CCNC(=O)c3cc(NC(=O)c4nc(NC(=O)CCNC(=O)c5cc(NC(=O)c6nc(NC(=O)CCNC(=O)c7cc(NC(=O)c8nccn8C)cn7C)cn6C)cn5C)cn4C)cn3C)cn2C)cn1C [ImPy-β-ImPy-β-ImPy-β-PyPy-β-Dp]
lower affinity at other mismatch-sites on the restriction fragment (5′-[…]-3′): 10-20 fold
apparent monomeric association constant Ka (5′-[…]-3′; 16 bp target site, pH 7.0, 24° C., values above 1-2×10^10 M^−1 are a lower limit): 3.5e+10 M⁻¹
lower affinity at proximal two-base pair mismatch site (5′-[…]-3′; […]): at least 35 fold

ImImImIm-γ-PyPyPyPy-β-Dp-EDTA
binding orientation by affinity cleaving [5]: single orientation

CN(C)CCCNC(=O)c1cc(NC(=O)c2cc(NC(=O)c3cc(NC(=O)CCNC(=O)c4cc(NC(=O)c5cc(NC(=O)c6nccn6C)cn5C)cn4C)cn3C)cn2C)cn1C [ImPyPy-β-PyPyPy-Dp]
Ka higher than ImPyPy-Py-PyPyPy-Dp by a factor of (5′-AAAAAGACAAAAA-3′): ~85
association constant Ka (5′-AAAAAGACAAAAA-3′; slipped binding): 5e+09 M⁻¹
affinity higher than ImPyPy-Py-PyPyPy-Dp by a factor of (5′-TGTTAAACA-3′): ~10
Ka (5′-TGTTAAACA-3′; overlapped binding): 8e+08 M⁻¹

ImPyImPy-γ-ImPyImPy-β-Dp-EDTA
binding orientation by affinity cleaving [5]: two equivalent orientations

Cn1cc(NC(=O)c2cc(NC(=O)c3cc(NC(=O)CBr)cn3C)cn2C)cc1C(=O)NCCC(=N)N [N-Bromoacetyldistamycin]
DNA cleavage (alkylation) ([1]; after 10 hours at 37°): comparable amount of cleavage to (+) CC-1065 at 1 hour, but at only one adenine
DNA cleavage (alkylation) ([1]; reaction time 1 hour at 37° C.): almost no visible cleavage

ImImPyPy-γ-ImImPyPy-β-Dp-EDTA
binding orientation by affinity cleaving [5]: two equivalent orientations

Im-β-ImPy-γ-Im-β-ImPy-β-Dp [Im-βImPy-γ-Im-β-ImPy-β-Dp]
affinity (in words) (5′-TGCGCA-3′; 5′-TGCGCA-3′ sequences): subnanomolar affinities
